From ChEMBL document CHEMBL1131688, “Solution-phase and solid-phase synthesis of novel transition state inhibitors of coagulation enzymes incorporating a piperidinyl moiety” (Bioorg Med Chem Lett, 1999)

What was measured:
Coagulation factor X [1] = molecular target: T1, Coagulation factor X (Homo sapiens, UniProt P00742); assay: Inhibitory activity against Coagulation factor X with respect to Argatroban
Prothrombin = Prothrombin (Homo sapiens, UniProt P00734); assay: Inhibitory activity against thrombin with respect to Argatroban
Coagulation factor X [2] = molecular target: T1, Coagulation factor X; assay: Inhibitory activity against Coagulation factor X

T1 sequence (P00742 41-179 limits assumed): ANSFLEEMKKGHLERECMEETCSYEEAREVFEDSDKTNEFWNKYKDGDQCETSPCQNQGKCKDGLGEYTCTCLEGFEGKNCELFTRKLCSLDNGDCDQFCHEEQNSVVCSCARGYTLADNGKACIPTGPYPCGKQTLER
T1 sequence (P00742 235-488 limits assumed): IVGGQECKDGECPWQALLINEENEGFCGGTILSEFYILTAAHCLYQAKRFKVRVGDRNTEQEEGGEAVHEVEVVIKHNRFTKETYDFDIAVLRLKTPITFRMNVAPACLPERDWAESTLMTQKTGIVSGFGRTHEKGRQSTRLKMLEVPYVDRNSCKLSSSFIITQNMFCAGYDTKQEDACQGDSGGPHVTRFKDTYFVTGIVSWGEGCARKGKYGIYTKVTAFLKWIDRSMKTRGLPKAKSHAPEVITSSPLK

## O=C(Cn1cccc(NS(=O)(=O)Cc2ccccc2)c1=O)N[C@@H](CC1CCNCC1)C(=O)C(=O)NCc1ccccc1
Coagulation factor X [1]
  IC50: 3.6 µM
Prothrombin
  IC50: 590 nM

## CN(CC(=O)NC(CC1CCNCC1)C(=O)c1nccs1)C(=O)[C@@H](CC1CCCCC1)NCC(=O)O (stereo partly specified)
Coagulation factor X [1]
  IC50: 0.43 µM
Prothrombin
  IC50: 4800 nM

## CCS(=O)(=O)N[C@H](CC1CCCCC1)C(=O)N1CCC[C@H]1C(=O)NC(CC1CCNCC1)C(=O)c1nccs1 (stereo partly specified)
Coagulation factor X [1]
  IC50: 4.1 µM
Prothrombin
  IC50: 160 nM

## O=C(NCc1ccccc1)C(=O)[C@H](CC1CCNCC1)NC(=O)[C@H]1CCCN1C(=O)[C@@H]1NCC[C@H]2CCCC[C@H]21
Coagulation factor X [1]
  IC50: 2.9 µM
Prothrombin
  IC50: 48 nM

## CCS(=O)(=O)N[C@H](CC1CCCCC1)C(=O)N1CCC[C@H]1C(=O)NC(CC1CCNCC1)C(=O)C(=O)O (stereo partly specified)
Coagulation factor X [1]
  IC50: 16 µM
Prothrombin
  IC50: 220 nM

## O=C(O)CN[C@H](CC1CCCCC1)C(=O)NCC(=O)NC(CC1CCNCC1)C(=O)c1nccs1 (stereo partly specified)
Coagulation factor X [1]
  IC50: 1.1 µM
Prothrombin
  IC50: 19400 nM

## CCS(=O)(=O)N[C@H](CC1CCCCC1)C(=O)N1CCC[C@H]1C(=O)N[C@@H](CC1CCNCC1)C(=O)c1nccs1
Coagulation factor X [1]
  IC50: 2.5 µM
Prothrombin
  IC50: 120 nM

## O=C(CN1CCCCC(NS(=O)(=O)Cc2ccccc2)C1=O)N[C@@H](CC1CCNCC1)C(=O)C(=O)NCc1ccccc1 (stereo partly specified)
Coagulation factor X [1]
  IC50: 5.2 µM
Prothrombin
  IC50: 1400 nM

## O=C(NCc1ccccc1)C(=O)[C@H](CC1CCNCC1)NC(=O)[C@H]1CCCN1C(=O)CC(c1ccccc1)c1ccccc1
Coagulation factor X [1]
  IC50: 54 µM
Prothrombin
  IC50: 260 nM

## O=C(O)CN[C@H](CC1CCCCC1)C(=O)N[C@@H](Cc1ccccc1)C(=O)NC(CC1CCNCC1)C(=O)c1nccs1 (stereo partly specified)
Coagulation factor X [1]
  IC50: 7.8 µM
Prothrombin
  IC50: 3100 nM

## CC1CNc2c(cccc2S(=O)(=O)N[C@@H](CCCNC(=N)N)C(=O)N2CCC(C)C[C@@H]2C(=O)O)C1 (single isomer, unassigned) [ARGATROBAN]
Coagulation factor X [2]
  IC50: 134 µM
